Results on five compounds are retold here after US20040136938A1, “Composition of vitamin c and/or vitamin a” (priority 2000, published 2004).

Series [1] deals with fibroblasts of mammaplasty. The series is described as follows: Collagen synthesis by fibroblasts (Sirius red coloration). The format is cell-based, human. As for the experimental part:
The fibroblasts of mammaplasty of a person, in passage 14, were seeded on 12-well plates at the rate of 0.5.10^5 cells per well. The cells are placed in culture for 48 hours in the presence of a DMEM culture medium at 10% of fetal calf serum (SVF), in stove (5% (v/v) CO2, 95% (v/v) air) at 37° C.
After rinsing with PBS, they are treated and placed again in culture for 48 hours in the presence of products to be tested and of DMEM without SVF.
The method is based on a specific coloration of collagen by the Sirius red. The cells are directly fixed by the Bouin liquid (1 ml/well) for 1 hour, after exhaustive rinsing with PBS. The fixer is then aspirated and the plates are rinsed with running water by immersion for 15 minutes.
The coloration is carried out under stirring for 1 hour (1 ml/well) and the plates are then rinsed with hydrochloric acid 0.01 N. Then the material is dissolved in 200 μl of sodium hydroxide 0.1N before transferring to the microtiter plates (Nunc). The optical density is measured at 550 nm against sodium hydroxide as a blank.
The counting of the cells is carried out in 4 wells of each plate, and one detaches the cells with tripsin at 0.05%.
One studied the effect of fucose and of the Mixture of oligofucoses-1 (at 10 μg/ml each) in the presence or absence of sodium ascorbate at 500 μg/ml. And then in the presence or absence of retinol (10 μg/ml).

In series [2] the test system is fibroblasts of human skin. The series is described as follows: Cellular proliferation of fibroblasts of human skin ([3H]-thymidine incorporation, 72 h). Type of series: cell-based. To be noted: for decrease in the cellular proliferation: retinol 20 μg/ml (69.72 μM) alone, vs. reference without retinol. As for the experimental part:
The Mixture of oligofucoses-1 as prepared in example 1 is tested in concentrations of 1 μg/ml and 10μg/ml, both alone and in the simultaneous presence of 375 μg/ml of sodium ascorbate and/or 20 μg/ml of retinol.
The fibroblasts of human skin used in this study come from the removal of skin from a person (28th passing). The cells were cultivated on 12-well plates, in a DMEM culture medium with 10% of fetal calf serum (SVF), 1% of antibiotics and of antifungus (PSF), and 1 μCi/ml of [^3H]-timidine (ICN) for 72 hours in the presence of the products to be tested at final concentrations of 1 μg/ml and 10 μg/ml.
After 72 hours of culture in stove (5% (v/v) CO2, 95% (v/v) air) at 37° C. in the presence of the tested products, the cells were washed four times with PBS, then the cellular carpet was detached for 0.05% of tripsin. Three ml of scintillation liquid were then added per sample, then the radioactivity incorporated in the cells is read in a computer with scintillation.
One incubated the cells with 20 μg/ml of retinol (69.72 μM). […] Two concentrations were tested: 1 μg/ml and 10 μg/ml.
One incubated the cells with 375 μg/ml of Na ascorbate (1.875 mM). […] Two concentrations were tested: 1 μg/ml and 10 μg/ml.
The cells were simultaneously incubated with 375 μg/ml of Na ascorbate and 20 μg/ml of retinol.
For orientation: Dividing cells build labelled thymidine or BrdU into new DNA.

In a further series the test system is cells. To be noted: cited from earlier work.

On to `O=C1O[C@H]([C@@H](O)CO)C([O-])=C1O.[Na+]` [Na ascorbate, sodium ascorbate], for which the “effect on synthesis of collagen” value in series [1] (sodium ascorbate 500 μg/ml alone, with respect to the effect of 50 μg/ml) is on record as “activates the synthesis of collagen very little”. Moreover, in series [2] (Na ascorbate 375 μg/ml alone), the “% vs. control (proliferation)” value is −64.4%.
For the compound `CC1=C(/C=C/C(C)=C/C=C/C(C)=C/CO)C(C)(C)CCC1` [Retinol, retinol], in series [1] (retinol alone (10 μg/ml)), the “effect on synthesis of collagen” value was “inhibiting effect on the synthesis of collagen”. The “decrease in the cellular proliferation” value is reported as “about 45%” in series [2] and 42.5% in series [2] (listed as retinol). In addition, the “% vs. control (proliferation)” value in series [2] (retinol 20 μg/ml alone) is listed as −42.5%.
As to `O=C1O[C@H]([C@@H](O)CO)C(O)=C1O` [ascorbate], in the series on cells (cell detachment, slowed proliferation, cellular death), the “concentration at which cytotoxic effect can be observed” value is “about 2.5 mM”.
Take `O=C1O[C@H]([C@@H](O)CO)C(O)=C1O` [ascorbic acid]: the “concentration from which cytotoxic effect starts” value in the series on cells is “about 0.01 % by weight”.
For the compound `C[C@H](O)[C@@H](O)[C@@H](O)[C@H](O)C=O` [fucose], the “effect on synthesis of collagen in the presence of retinol” value in series [1] (10 μg/ml with retinol 10 μg/ml, 48 h) is reported as “this inhibition is greatly abolished”. For the same compound, in series [1] (10 μg/ml with sodium ascorbate 500 μg/ml, 48 h), the “effect on biosynthesis of collagen in the presence of sodium ascorbate” value is given as “stimulation of the biosynthesis of collagen”. In series [1] (fucose alone, 48 h, DMEM without SVF), the “decrease in the amount of collagen synthesized by the fibroblasts” value was “about 19%”.
